Measured values: patent US8691498B2, “Methods of screening for a compound that reduces atherogenesis” (Arena Pharmaceuticals, Inc., priority 2005, dated 2014)

Assays:
[1] = target: GPR88 (Homo sapiens, UniProt Q9GZN0); assay: EC50 at GPR88 (selectivity, data not shown); type: cell-based; conditions: for EC50: not shown; for selectivity for GPR84 over GPR88: concluded from EC50 at GPR84 and GPR88
[2] = tested on: MCP-1 mRNA in human macrophage; assay: Steady-state MCP-1 mRNA level in human macrophage (microarray); type: cell-based; conditions: 10 μM, 24 hours
Method: (§1) Human peripheral blood monocytes were isolated from buffy coat by dextran and ficoll purification. Monocytes were then purified using a monocyte isolation kit from Miltenyi Biotec. Monocytes were cultured for 7 days with 10 ng/ml GM-CSF to derive macrophage cells. […] MCP-1 and IL-8 steady-state mRNA levels were assessed by microarray analysis. Vehicle was dimethyl sulfoxide (DMSO); the final concentration of DMSO in the culture was 0.1% (v/v). Expression levels are the average and SD of two replicates.

[3] = tested on: ABCA1 mRNA in human macrophage; assay: Steady-state ABCA1 mRNA level in human macrophage (TaqMan); type: cell-based; conditions: human monocyte-derived macrophage, 24 hours
Method: Macrophages were derived from monocytes as previously indicated. […] Vehicle was dimethyl sulfoxide (DMSO); the final concentration of DMSO in the culture was 0.1% (v/v). Total RNA was extracted from the cells and analyzed by TaqMan analysis as previously indicated to assess steady-state ABCA1 mRNA level. Data are the average and SD of three replicates. The qPCR reactions were prepared from the cDNA using the Bio-Rad qPCR kit, following the manufacturer's protocol. The qPCR reactions were performed using the ABI Prism 7900HT machine with the following temperatures and times: 50° C.—2 min, 95° C.—10 min followed by 40 cycles of 95° C.—15 sec and 60° C.—1 min.

[4] = tested on: TNFα secretion by mouse macrophage cell line RAW; assay: TNFα secretion by mouse macrophage cell line RAW (ELISA); type: cell-based; conditions: RAW cells, 1 μM for 24 hours, absence or presence of LPS
Method: RAW cells were cultured to subconfluency. […] Vehicle was dimethyl sulfoxide (DMSO); the final concentration of DMSO in the culture was 0.1% (v/v). Cells were then stimulated with the indicated concentrations of LPS for 24 hours. Supernatants were collected and TNFα levels were assayed using a mouse specific TNFα ELISA kit from Biosource.

[5] = target: T1, GPR84 (Homo sapiens, UniProt Q9NQS5); assay: Cyclase (cAMP Flashplate) assay in 293 cells transfected with GPR84; type: cell-based; conditions: 1 hr treatment
From the text: Thyroid-stimulating hormone (TSH, or thyrotropin) receptor (TSHR) causes the accumulation of intracellular cAMP on activation by its ligand TSH. An effective technique for measuring the decrease in production of cAMP corresponding to activation of a Gi-coupled receptor is to co-transfect TSHR with the Gi-coupled receptor and to carry out the assay in the presence of TSH to raise the level of basal cAMP, whereby TSHR acts as a “signal window enhancer.” Such an approach was used here. Cyclase assay of GPR84 activity was carried out. 293 cells were transfected with either vector alone or vector containing polynucleotide encoding GPR84.

[6] = tested on: IL-8 mRNA in human macrophage; assay: Steady-state IL-8 mRNA level in human macrophage (microarray); type: cell-based; conditions: 10 μM, 24 hours
Method: as §1

[7] = tested on: TNFα secretion by human macrophage; assay: TNFα secretion by human macrophage (ELISA); type: cell-based; conditions: 10 μM for 24 hrs, absence or presence of LPS
Method: Human peripheral blood monocytes were isolated from buffy coat by dextran and ficoll purification. Monocytes were then purified using a monocyte isolation kit from Miltenyi Biotec. Monocytes were cultured for 7 days with 10 ng/ml GM-CSF to derive macrophage cells. […] Vehicle was dimethyl sulfoxide (DMSO); the final concentration of DMSO in the culture was 0.1% (v/v). Cells were then stimulated with the indicated concentrations of LPS for 24 hours. Supernatants were collected and TNFα levels were assayed using a human specific TNFα ELISA kit from Biosource.

[8] = target: T1, GPR84; assay: IP3 assay in 293 cells transfected with GPR84, with or without Gq(del)/Gi chimeric G protein; type: cell-based; design: expressed in transfected cells; host or cells: 293 cells comprising or not comprising Gq(del)/Gi; conditions: 293 cells comprising Gq(del)/Gi chimeric G protein, 10 μM, 3 hrs
Method: IP3 Assay of GPR84 activity was carried out. 293 cells were transfected with either vector alone or vector containing polynucleotide encoding GPR84. […] 24 hrs after transfection, cells were plated into 96 well plates, labeled overnight with ^3H-myoinositol.

[9] = target: T1, GPR84; assay: Melanophore pigment aggregation assay, melanophores transiently transfected with human GPR84; type: cell-based; design: Full-Length Cloning of Endogenous Human GPR84; expressed in transfected cells; host or cells: melanophores (transient transfection); conditions: representative melanophore assay, one hour incubation
From the text: Melatonin activates an endogenous Gi-coupled receptor in the melanophores and causes them to aggregate their pigment. […] If the receptor were either a Gs or Gq coupled receptor, then the melatonin-aggregated melanophores would undergo pigment dispersion. In contrast, if the receptor was a Gi-coupled receptor, then the pigment-dispersed cells would be expected to undergo a dose-dependent pigment aggregation.

[10] = tested on: GPR84 mRNA in human monocytes; assay: GPR84 mRNA expression in primary human monocytes (QRT-PCR); type: cell-based; conditions: overnight
From the text: Peripheral blood leukocytes were separated from erythrocytes by sedimentation in a dextran containing saline solution. The leukocytes were washed, and mononuclear cells were isolated on a Ficoll density gradient. Peripheral blood mononuclear cells were then washed and negatively selected using a MACS® monocyte isolation kit II (Miltenyi Biotec, Auburn, Calif.) and LS MACS® cell separation columns according to manufacturer's instructions. Freshly isolated monocytes were then resuspended in culture medium alone or culture medium supplemented with TNFα (10 ng/ml) or IFNγ (10 or 100 ng/ml) and allowed to adhere to wells precoated with vitronectin. Cultures were harvested at the indicated times. GPR84 TaqMan analysis was performed essentially as described in Part A of Example 15, infra. Multiple replicates were obtained from different individual donors. Data are expressed as the mean of the ratio of the GPR84 signal to the HS9 (Human ribosomal protein S9, housekeeping gene) signal±SEM.

[11] = target: T1, GPR84; assay: GTPγS binding assay with membranes from GPR84 transfected CHO-KI cells; type: biochemical; conditions: not shown
Method: GTPγS assay of GPR84 activity was carried out. Membranes prepared from GPR84 transfected CHO-KI cells were dissolved in binding buffer (20 mM HEPES, pH 7.4, 100 mM NaCl, 10 mM MgCl2) and homogenized briefly using a polytron. Membrane protein concentration was determined by Bradford assay and the membranes were diluted to 0.4 mg/ml in binding buffer. […] Binding was allowed to proceed for one hour before centrifuging the plates at room temperature to pellet the membrane and subsequent counting in a TopCount scintillation counter.

GPR88, sequence (Q9GZN0 whole entry): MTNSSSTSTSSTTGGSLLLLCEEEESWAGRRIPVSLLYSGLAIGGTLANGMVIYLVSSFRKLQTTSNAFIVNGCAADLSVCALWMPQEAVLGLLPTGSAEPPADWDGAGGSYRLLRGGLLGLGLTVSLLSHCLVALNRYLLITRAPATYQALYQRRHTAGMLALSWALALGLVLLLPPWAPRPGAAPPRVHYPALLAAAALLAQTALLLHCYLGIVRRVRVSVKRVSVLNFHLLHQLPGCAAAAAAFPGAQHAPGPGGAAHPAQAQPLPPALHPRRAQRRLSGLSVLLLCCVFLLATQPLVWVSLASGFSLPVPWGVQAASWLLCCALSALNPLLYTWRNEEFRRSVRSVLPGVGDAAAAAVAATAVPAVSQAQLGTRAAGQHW
T1 sequence (Q9NQS5 whole entry): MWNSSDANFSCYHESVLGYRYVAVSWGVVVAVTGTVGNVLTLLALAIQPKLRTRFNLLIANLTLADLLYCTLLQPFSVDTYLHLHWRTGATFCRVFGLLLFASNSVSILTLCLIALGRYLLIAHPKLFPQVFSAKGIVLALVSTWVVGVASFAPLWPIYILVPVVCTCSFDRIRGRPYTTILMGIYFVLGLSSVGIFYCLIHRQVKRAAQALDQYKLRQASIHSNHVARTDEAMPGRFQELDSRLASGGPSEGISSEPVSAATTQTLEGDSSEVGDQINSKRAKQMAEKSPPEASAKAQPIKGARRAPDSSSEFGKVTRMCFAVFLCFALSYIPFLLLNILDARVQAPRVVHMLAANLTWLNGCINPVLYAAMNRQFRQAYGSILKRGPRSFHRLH

## CCCCCCCCCCCC1=C(O)C(=O)C=C(O)C1=O [Compound 1, 2,5-Dihydroxy-3-undecyl-[1,4]benzoquinone]
[1]
  EC50: > 100000 nM
[2]
  steady-state level of MCP-1 mRNA: decrease
[3]
  steady-state level of ABCA1 mRNA: increase
[4]
  TNFα secretion: no effect
[5]
  level of intracellular cAMP: decrease
[6]
  steady-state level of IL-8 mRNA: increase
[7]
  TNFα secretion: no effect
[8]
  level of intracellular IP accumulation: increase

## CCCCCC#CCC#CCC#CCC#CCCCC(=O)O [Compound 2, Icosa-5,8,11,14-tetraynoic acid]
[1]
  selectivity for GPR84 over GPR88: selective GPR84 agonist
  EC50: > 10000 nM
[9]
  EC50: 48.2 nM

## CCCCC/C=C/C/C=C/C=C/C=C/[C@@H](O)[C@@H](O)CCCC(=O)O [Compound 3, 5S,6R-Dihydroxy-icosa-7,9,11,14-tetraenoic acid]
[1]
  selectivity for GPR84 over GPR88: selective GPR84 agonist
  EC50: > 10000 nM
[9]
  EC50: 30.8 nM

## IFNγ: proinflammatory cytokine interferon gamma
[10]; primary monocytes, 10 or 100 ng/ml
  GPR84 mRNA expression: dose-dependent increase

## Pertussis toxin
[11]
  effect on stimulation of GTPγS binding to membrane by Compound 1: inhibit

## TNFα
[10]; primary human monocytes, 10 ng/ml
  GPR84 mRNA expression: significant increase
